In PubChem BioAssay (NCI):
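Exposure lasted 48 hours, with cells grown in 96-well plates and compounds tested at five concentrations. The concentration for 50% growth inhibition is given as GI50. Definition used: TGI = concentration required for complete inhibition of growth.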

Columns and labels:
Assay in all cases: inhibition of tumour cell growth, NCI panel, 48 h
SK-MEL-28 melanoma = tested on: SK-MEL-28 melanoma
OVCAR-4 ovarian = tested on: OVCAR-4 ovarian
SK-MEL-2 melanoma = tested on: SK-MEL-2 melanoma
M14 melanoma = tested on: M14 melanoma
RPMI-8226 leukemia = tested on: RPMI-8226 leukemia
IGROV1 ovarian = tested on: IGROV1 ovarian
HOP-18 NSCLC = tested on: HOP-18 NSCLC
DLD-1 colon = tested on: DLD-1 colon
DMS 273 small cell lung = tested on: DMS 273 small cell lung
XF 498 CNS = tested on: XF 498 CNS
BT-549 breast = tested on: BT-549 breast

| SMILES | TGI (SK-MEL-28 melanoma) [µM] | TGI (OVCAR-4 ovarian) [µM] | TGI (SK-MEL-2 melanoma) [µM] | TGI (M14 melanoma) [µM] | TGI (RPMI-8226 leukemia) [µM] | TGI (IGROV1 ovarian) [µM] | TGI (HOP-18 NSCLC) [µM] | TGI (DLD-1 colon) [µM] | TGI (DMS 273 small cell lung) [µM] | TGI (XF 498 CNS) [µM] | GI50 (SK-MEL-2 melanoma) [µM] | GI50 (BT-549 breast) [µM] | TGI (BT-549 breast) [µM] |
| --- | --- | --- | --- | --- | --- | --- | --- | --- | --- | --- | --- | --- | --- |
| Cc1ccc(/C=C2\CCCC(C(NO)c3ccc(C)cc3)C2=NO)cc1 (configuration not stated) | 67.7 | 45.4 | > 100 | 85.4 | 48.8 | > 100 | > 100 | > 100 | > 100 | > 100 |  |  |  |
| COc1ccc(C2C(C(=O)O)=C(COC(C)=O)Oc3cc4c(cc32)OCO4)c(OC)c1 (configuration not stated) | > 100 | > 100 | > 100 | > 100 | > 100 | > 100 | > 100 | > 100 | > 100 | > 100 |  |  |  |
| COc1cc([C@H]2c3cc4c(cc3[C@H](NCc3ccc(F)cc3)C3COC(=O)[C@H]32)OCO4)cc(OC)c1O (some centres not stated) | 37 | > 100 | 33.1 | 13.6 | 18.2 | 34 | > 100 | > 100 | 13.8 | 9.67 |  |  |  |
| O=C(Nc1c(Cl)cc([N+](=O)[O-])cc1Cl)C(=O)C(C(=O)c1ccncc1)C1OC(=O)c2ccccc21 (configuration not stated) | > 100 | > 100 |  | > 100 | > 100 | > 100 | > 100 | > 100 | > 100 | > 100 |  |  |  |
| O=C(O)c1cc2ccc(Cl)cc2c(O)c1C1=CCCCC1 | > 100 | 57.2 | 63.8 | > 100 | > 100 | > 100 | > 100 | > 100 | 68.8 | 51 |  |  |  |
| CN(C)CC(=O)N1CCc2c([nH]c3ccccc23)C1c1cccnc1 (configuration not stated) | > 100 | > 100 | > 100 | > 100 | > 100 | > 100 | > 100 | > 100 | 1.37 | > 100 | > 100 | 12.9 | 77.4 |
| CCOc1ccc(N=Nc2c(-c3ccccc3)nn(C(=O)CC(=O)Nc3ccccc3Cl)c2-c2ccccc2)cc1 | > 100 | > 100 | > 100 | > 100 | > 100 | > 100 | > 100 | > 100 | > 100 | > 100 |  |  |  |
| CN(C)CN(C)c1nc(N(C)C)nc(N(C)C)n1 | > 100 | > 100 | > 100 | > 100 | > 100 | > 100 | > 100 | > 100 | > 100 | > 100 |  |  |  |
